Measurements from patent US10106523B2, “Amide compound” (ASTELLAS PHARMA INC., priority 2014, dated 2018).

Biological target: rat EP4 receptor (Rattus norvegicus, UniProt P43114)
Experiment: Evaluation test of rat EP4 receptor affinity ([3H]PGE2 binding, membrane fraction of HEK-293 cells)
Parameters: expressed in transfected cells; host or cells: HEK-293 (ATCC CRL-1573), transient
Conditions: 0.3 nmol/L [3H]PGE2, rat EP4 cell membrane fraction, room temperature 1 hour; read-out: Ki value with respect to the rat EP4 receptor
Protocol: Test Example 1: Evaluation Test of Rat EP4 Receptor Affinity
Construction of Rat EP4 Receptor Expressing Vector:
A rat EP4 receptor gene (GenBank accession No.: NM_032076.1) was transfected into an expression vector pcDNA3.1-V5-His-TOPO (Invitrogen Inc.).
Transient Expression of Rat EP4 Receptor:
The expression vector of a rat EP4 receptor was transfected into an HEK-293 cell (ATCC No.: CRL-1573). The transfection was carried out according to an appended instruction, using Lipofectoamine (registered trademark) 2000 reagent (Invitrogen Inc.). After the transfection, the cells were cultured in an α-MEM culture medium for 20 to 24 hours.
Preparation of Membrane Fraction:
The culture medium was removed by aspiration, 10 mL of cooled phosphate buffered saline (PBS) was added thereto per 15 cm dish, and the cells were scraped using a cell scraper (Sumitomo Bakelite). […]
[^3H]PGE2 and a cell membrane fraction were diluted with an assay buffer (50 mmol/L HEPES-NaOH, 10 mmol/L MgCl2, pH 7.5), and the test compound and unlabeled PGE2 (Cayman) were diluted with DMSO and the assay buffer. […] The radioactivity was measured using a TopCount (Perkin Elmer). […] The specific binding amount was determined by subtracting the non-specific binding amount from the total binding amount. The Ki value was calculated according to a standard method.

rat EP4 receptor, sequence (P43114 whole entry): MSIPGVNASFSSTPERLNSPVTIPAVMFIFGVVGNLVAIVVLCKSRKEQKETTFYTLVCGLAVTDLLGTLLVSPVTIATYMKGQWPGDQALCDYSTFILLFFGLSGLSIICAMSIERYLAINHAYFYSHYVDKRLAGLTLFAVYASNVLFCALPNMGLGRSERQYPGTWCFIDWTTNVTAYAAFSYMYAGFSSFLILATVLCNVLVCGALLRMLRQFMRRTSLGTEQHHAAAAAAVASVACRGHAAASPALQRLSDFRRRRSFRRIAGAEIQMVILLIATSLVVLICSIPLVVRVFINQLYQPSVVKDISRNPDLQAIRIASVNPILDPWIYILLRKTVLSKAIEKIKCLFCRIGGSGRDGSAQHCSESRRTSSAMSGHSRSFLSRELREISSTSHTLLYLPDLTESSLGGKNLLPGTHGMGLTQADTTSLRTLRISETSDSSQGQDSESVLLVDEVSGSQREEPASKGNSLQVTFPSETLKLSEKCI

Ki: 0.874 nM
SMILES: Cc1nn(Cc2cc3ccccc3cn2)c(C(=O)N[C@@H](C)c2ccc(C(=O)O)cc2)c1Br [Compound A, 4-[(1S)-1-({[4-bromo-1-(isoquinolin-3-ylmethyl)-3-methyl-1H-pyrazol-5-yl]carbonyl}amino)ethyl]benzoic acid]
